Laboratory results: ChEMBL document CHEMBL1201862, “PubChem BioAssay data set” (2004)
Several values for one entry are separate records, joined by “and”; a condition that tells them apart may be missing. Equal entries are not always repeated.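 All cell lines were grown in 96-well plates and treated with compound for 48 hours. GI50 = concentration required for 50% inhibition of growth.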 Activity calls are given as the source filed them. Cut-off read from the data, not from the text of the source: active = GI50 up to about 1.1 µM and inactive = higher.

Legend:
Experiment in all cases: inhibition of tumour cell growth, NCI panel, 48 h
UO-31 = system: UO-31
MDA-MB-435 = system: MDA-MB-435
DU-145 = system: DU-145
A549 = system: A549
RXF 393 = system: RXF 393
NCI-H460 = system: NCI-H460
UACC-257 = system: UACC-257
SN12C = system: SN12C
HCT-116 = system: HCT-116
U-251 = system: U-251
SK-OV-3 = system: SK-OV-3
SK-MEL-2 = system: SK-MEL-2
Malme-3M = system: Malme-3M
HT-29 = system: HT-29
SF-268 = system: SF-268
SF-539 = system: SF-539
MDA-N = system: MDA-N
NCI/ADR-RES = system: NCI/ADR-RES
MOLT-4 = system: MOLT-4

Measured: GI50

N#CC12COC3(CCCCC3C1(C#N)C#N)OC2=N (stereo not drawn)
inactive: UO-31 15.2 µM | MDA-MB-435 18.9 µM | DU-145 15.3 µM | A549 24.7 µM | RXF 393 13.1 µM | NCI-H460 16 µM | UACC-257 17.4 µM | SN12C 12.3 µM | HCT-116 12.6 µM | U-251 8.87 µM | SK-OV-3 45.7 µM | SK-MEL-2 12.7 µM | Malme-3M 16.3 µM | HT-29 11.3 µM | SF-268 12.7 µM | SF-539 13.9 µM | MDA-N 12.9 µM | NCI/ADR-RES 28.2 µM | MOLT-4 10.9 µM

COc1cc(/C=N/NC(=O)c2c(Cl)c(Cl)c(Cl)c(Cl)c2-c2nc3ccccc3[nH]2)ccc1O
inactive: UO-31 22.4 µM | MDA-MB-435 29 µM | DU-145 19.9 µM | A549 29.9 µM | RXF 393 20.2 µM | NCI-H460 19.1 µM | UACC-257 29.3 µM | SN12C 24.2 µM | HCT-116 16.7 µM | SK-OV-3 35.5 µM | SK-MEL-2 20.3 µM | Malme-3M 21.7 µM | HT-29 22.2 µM | SF-268 32.5 µM | SF-539 26.7 µM | MDA-N 24 µM | NCI/ADR-RES > 100 µM | MOLT-4 18 µM

C=C(C)CC1=C(C(=S)NCCO[Si](C)(C)C(C)(C)C)C(OCC)(OCC)C1=O
inactive: UO-31 18.5 µM | MDA-MB-435 16.9 µM | DU-145 23 µM | A549 15.2 µM | RXF 393 13.6 µM | UACC-257 16.9 µM | SN12C 19.7 µM | HCT-116 18.2 µM | U-251 19.9 µM | SK-OV-3 18.2 µM | SK-MEL-2 17 µM | Malme-3M 12.7 µM | HT-29 9.59 µM | SF-268 19.1 µM | SF-539 19.9 µM | MDA-N 19.3 µM | NCI/ADR-RES 36.1 µM | MOLT-4 > 100 µM

C=C1C(=O)OC2/C=C(\CO)C(OC(C)=O)CC(O)/C(C)=C/C(OC(=O)C(C)CC)C12 (stereo not drawn)
inactive: UO-31 87.1 µM and 65.5 µM | MDA-MB-435 20.3 µM | DU-145 19.8 µM | A549 45.8 µM and 37.3 µM | RXF 393 23.1 µM and 24.4 µM | NCI-H460 23.3 µM and 38.6 µM | UACC-257 15.2 µM and 18 µM | SN12C 18.2 µM and 20.2 µM | HCT-116 14 µM and 19.7 µM | U-251 30.1 µM and 26.9 µM | SK-OV-3 > 100 µM | SK-MEL-2 17.5 µM and 17.1 µM | Malme-3M 13.5 µM and 15.3 µM | HT-29 16.3 µM and 21 µM | SF-268 28.9 µM and 19.7 µM | SF-539 24.8 µM and 19.2 µM | MDA-N 18.3 µM | NCI/ADR-RES > 100 µM
